Test results reported in publication PMC6104039 (Nature Communications, 2018).
Where “and” joins values, the source holds several entries; their conditions need not be identical. Equal values may be shown once.

Test system: HEK293 cells
Test: Endogenous ceramide, HexCer and SM levels in cells treated 24 h, targeted LC-MS/MS
Format: cell-based
Conditions: 24 h
Procedure: Lipids were then extracted using MTBE/methanol/water as described above.
HEK293 cell culture experiment: Levels of each lipid in P053-treated HEK293 cells were normalised to the mean of the vehicle control group, and each concentration was compared to the control using ANOVA with Dunnett’s post-test. P values were adjusted for multiple comparisons in GraphPad PRISM.
Supplementary Figure 1. Ceramide, SM, and HexCer levels in HEK293 cells treated with
P053. Absolute lipid levels were determined by targeted LC-MS/MS, relative to external
standard curves. Results are mean ± SEM (n = 4) from one of two identical experiments.
Statistically significant results, based on two independent experiments, are as indicated in
Figure 2b-d. Raw data for these figures is provided in Supplementary Data File 1.

SMILES: C[C@@](N)(CO)CCc1ccc(OCc2ccc(Cl)c(Cl)c2)cc1 [P053, (S)-2-amino-4-(4-(3,4-dichlorobenzyloxy)phenyl)-2-methylbutan-1-ol]
- reduction of C18:0 ceramide (100 nM): 53%
- C18 HexCer: selectively reduced
- C18 SM: selectively reduced
- C24:0 ceramide: minor increase
- other forms of ceramide: No other forms of ceramide were reduced
- 14:0 SM level (HEK293 cells, P053 10 nM): 86.4023 percentage of the vehicle control group and 87.5076 percentage of the vehicle control group and 111.4 percentage of the vehicle control group and 123.229 percentage of the vehicle control group and 107.24 percentage of the vehicle control group and 105.555 percentage of the vehicle control group and 105.116 percentage of the vehicle control group and 89.1667 percentage of the vehicle control group
- 16:0 Cer level (HEK293 cells, P053 10 nM): 108.507 percentage of the vehicle control group and 85.9381 percentage of the vehicle control group and 87.0921 percentage of the vehicle control group and 116.695 percentage of the vehicle control group and 104.33 percentage of the vehicle control group and 104.933 percentage of the vehicle control group and 106.707 percentage of the vehicle control group and 101.056 percentage of the vehicle control group
- 16:0 HexCer level (HEK293 cells, P053 10 nM): 83.0725 percentage of the vehicle control group and 87.9406 percentage of the vehicle control group and 128.577 percentage of the vehicle control group and 99.1213 percentage of the vehicle control group and 108.606 percentage of the vehicle control group and 107.974 percentage of the vehicle control group and 99.8354 percentage of the vehicle control group and 80.4305 percentage of the vehicle control group
- 16:0 SM level (HEK293 cells, P053 10 nM): 90.9817 percentage of the vehicle control group and 95.8078 percentage of the vehicle control group and 105.689 percentage of the vehicle control group and 116.265 percentage of the vehicle control group and 95.5779 percentage of the vehicle control group and 88.0621 percentage of the vehicle control group and 88.5464 percentage of the vehicle control group and 91.6422 percentage of the vehicle control group
- 16:1 SM level (HEK293 cells, P053 10 nM): 86.5462 percentage of the vehicle control group and 91.7143 percentage of the vehicle control group and 104.066 percentage of the vehicle control group and 119.449 percentage of the vehicle control group and 101.997 percentage of the vehicle control group and 91.4576 percentage of the vehicle control group and 97.8179 percentage of the vehicle control group and 89.4979 percentage of the vehicle control group
- 18:0 Cer level (HEK293 cells, P053 10 nM): 75.1597 percentage of the vehicle control group and 77.1381 percentage of the vehicle control group and 83.1016 percentage of the vehicle control group and 101.889 percentage of the vehicle control group and 100.455 percentage of the vehicle control group and 110.825 percentage of the vehicle control group and 90.177 percentage of the vehicle control group and 106.32 percentage of the vehicle control group
- 18:0 SM level (HEK293 cells, P053 10 nM): 87.3577 percentage of the vehicle control group and 90.1399 percentage of the vehicle control group and 117.324 percentage of the vehicle control group and 82.3337 percentage of the vehicle control group and 88.9916 percentage of the vehicle control group and 83.1732 percentage of the vehicle control group and 88.0529 percentage of the vehicle control group
- 18:1 SM level (HEK293 cells, P053 10 nM): 90.5796 percentage of the vehicle control group and 93.2037 percentage of the vehicle control group and 88.8318 percentage of the vehicle control group and 108.011 percentage of the vehicle control group and 95.5914 percentage of the vehicle control group and 79.238 percentage of the vehicle control group and 78.9032 percentage of the vehicle control group and 84.4686 percentage of the vehicle control group
- 22:0 Cer level (HEK293 cells, P053 10 nM): 104.639 percentage of the vehicle control group and 100.078 percentage of the vehicle control group and 73.3754 percentage of the vehicle control group and 101.613 percentage of the vehicle control group and 114.746 percentage of the vehicle control group and 118.068 percentage of the vehicle control group and 114.641 percentage of the vehicle control group and 113.437 percentage of the vehicle control group
- 22:0 HexCer level (HEK293 cells, P053 10 nM): 98.6933 percentage of the vehicle control group and 87.3308 percentage of the vehicle control group and 106.948 percentage of the vehicle control group and 113.522 percentage of the vehicle control group and 107.776 percentage of the vehicle control group and 119.187 percentage of the vehicle control group and 120.197 percentage of the vehicle control group and 88.6877 percentage of the vehicle control group
- 22:0 SM level (HEK293 cells, P053 10 nM): 77.9336 percentage of the vehicle control group and 82.0524 percentage of the vehicle control group and 72.1049 percentage of the vehicle control group and 117.359 percentage of the vehicle control group and 120.117 percentage of the vehicle control group and 100.918 percentage of the vehicle control group and 103.279 percentage of the vehicle control group and 105.704 percentage of the vehicle control group
- 22:1 SM level (HEK293 cells, P053 10 nM): 103.42 percentage of the vehicle control group and 102.614 percentage of the vehicle control group and 99.3902 percentage of the vehicle control group and 105.25 percentage of the vehicle control group and 111.738 percentage of the vehicle control group and 105.36 percentage of the vehicle control group and 88.0812 percentage of the vehicle control group and 91.3619 percentage of the vehicle control group
- 24:0 HexCer level (HEK293 cells, P053 10 nM): 87.0807 percentage of the vehicle control group and 93.0525 percentage of the vehicle control group and 81.1451 percentage of the vehicle control group and 103.31 percentage of the vehicle control group and 112.306 percentage of the vehicle control group and 129.078 percentage of the vehicle control group and 103.585 percentage of the vehicle control group and 92.4822 percentage of the vehicle control group
- 24:0 SM level (HEK293 cells, P053 10 nM): 97.1928 percentage of the vehicle control group and 98.2718 percentage of the vehicle control group and 75.7857 percentage of the vehicle control group and 112.798 percentage of the vehicle control group and 112.334 percentage of the vehicle control group and 114.303 percentage of the vehicle control group and 127.22 percentage of the vehicle control group and 98.002 percentage of the vehicle control group
- 24:1 Cer level (HEK293 cells, P053 10 nM): 105.077 percentage of the vehicle control group and 87.804 percentage of the vehicle control group and 67.6975 percentage of the vehicle control group and 121.49 percentage of the vehicle control group and 108.722 percentage of the vehicle control group and 121.479 percentage of the vehicle control group and 112.469 percentage of the vehicle control group and 111.695 percentage of the vehicle control group
- 24:1 HexCer level (HEK293 cells, P053 10 nM): 100.2 percentage of the vehicle control group and 101.908 percentage of the vehicle control group and 107.061 percentage of the vehicle control group and 109.845 percentage of the vehicle control group and 113.174 percentage of the vehicle control group and 115.061 percentage of the vehicle control group and 107.49 percentage of the vehicle control group and 96.3768 percentage of the vehicle control group
